Measured values as given in patent US20040087539A1, “Method of treating conditions related to platelet activity” (priority 2003, published 2004).
“Also recorded” adds a separate entry of the source.

Key:
platelets [1] = assay: Ristocetin-induced vWF-dependent platelet aggregation in platelet-rich plasma; type: cell-based, human; conditions: PRP; agent added with subthreshold ristocetin (1 mg/mm [sic]) (or botrocetin); FIGS. 3B, 6A
Protocol: (§1) Fresh blood from healthy volunteers was anticoagulated with 1/7 volume of ACD (2.5% trisodium citrate, 2% dextrose and 1.5% citric acid). Platelets were washed with CGS buffer (sodium chloride 0.12 M, trisodium citrate 0.0129 M and d-glucose 0.03 M, pH 6.5), resuspended in modified Tyrode's solution and allowed to incubate at 22° C. for 1 hours as previously described. In experiments using platelet-rich plasma (PRP), 1/10 volume of 3.8% trisodium citrate was used as anticoagulant. Platelet aggregation was measured using a turbidometric platelet aggregometer (Chrono-Log) at 37° C. vWF-dependent platelet aggregation was induced by addition of ristocetin or botrocetin to PRP. To differentiate CPIb-IX-mediated platelet agglutination from the second wave of integrin-dependent platelet aggregation, final concentrations of ristocetin were adjusted in each experiment to achieve a two-wave curve of aggregation. Washed platelets were used in platelet aggregation induced by a-thrombin (Enzyme Research Laboratories). To examine the effects of PKG, 100 μM of membrane permeable cGMP analogs, 8-bromo-cGMP or 8-dibutyl-cGMP (Calbiochem), or 1 μM sildenafil citrate (Pfizer) and added simultaneously with subthreshold concentrations of agonists. PKG inhibitors KT5823 (2 pM) and Rp-8PCPT-cGMP (0.2 mM) were preincubated with platelets at 37° C. for 5 minutes before addition of agonists.
In FIG. 3A, platelet rich-plasma (PRP) was preincubated at 37° C. for 5 mm with PKG inhibitors KT5823 (2 pM) or Rp-8pCPT-cGMP (0.2 μM). PRP was also incubated with DMSO (vehicle for KT5823), a PKA inhibitor, KT5720 (2 pM), or buffer (Control). The vWF modulator, ristocetin, was then added to induce vWF-GPIb-IX interaction. […] In FIG. 3B, a subthreshold concentration of ristocetin was added to PRP immediately followed by addition of 8-bromo-cGMP or buffer (Control). PRP also was preincubated with integrin inhibitor RGDS before adding ristocetin and 8-bromo-cGMP. In FIG. 3C, platelets were preincubated with or without PKG inhibitor KT5823, then allowed to spread on vWF-coated glass chamber slides. Platelets were stained with an anti-GPIb antibody, and fluorescein-labeled secondary antibody. The slides were imaged under a confocal microscope (magnification =630×).
(§2) In FIG. 6A, increasing concentrations of sildenafil or control 0.15 M NaCl solution were added to platelet-rich plasma followed by a subthreshold concentration of ristocetin. Platelet aggregation was recorded using a platelet aggregometer. In FIG. 6B, sildenafil or control buffer was added to washed platelets followed by addition of subthreshold doses of thrombin to induce platelet aggregation. It was noted that platelet aggregation occurs in the presence of sildenafil. The figure includes the representative results of at least three experiments.
(§3) In FIG. 7A, PRP was preincubated with 0.1 mM 8-bromo-cGMP for increasing lengths of time at 37° C. as indicated. The vWF modulator, ristocetin (1.25 mg/ml), then was added to induce platelet aggregation in a turbidometric platelet aggregometer. In FIG. 7B, PRP was preincubated with a high concentration of 8-bromo-cGMP (1 mM) for 5 minutes. Ristocetin then was added to induce platelet aggregation. In FIGS. 7C and 7D, washed platelets in modified Tyrode's solution were preincubated with 1 mM 8-bromo-cGMP (C), or various concentrations of 8-pCPT-cGMP (D) at 37° C. for 5 minutes. Thrombin (0.05 u/ml) then was added to induce platelet aggregation.

[2] = test system: CHO cells expressing human platelet receptors; assay: Cell adhesion to immobilized vWF under flow; type: cell-based, Chinese Hamster; conditions: for stable adhesion of vector-transfected 123 cells to vWF under flow / stable adhesion of PKG-expressing 123 cells (123PKG) to vWF under flow: FIG. 2C, sildenafil 5 μM; for stable adhesion of PKG-expressing 123 cells (123PKG) to vWF under flow: RGDS 4 mM, 8-bromo-cGMP not shown
Protocol: CHO cells expressing human platelet receptors were resuspended in modified Tyrode's buffer, pH 7.4, containing 1 mg/mi of bovine serum albumin (BSA) (see Ref. 46), and final cell count was 5×10^5/ml. […] Purified human vWF (10 μg/ml in 0.1 M NaHCO3, pH 8.3) was added to glass microcapillary tubes (inner diameter of 1.33 mm and a length of 7.2 cm), and incubated at 4° C. for 20 h. The vWF-coated microcapillary tubes then were incubated with 5% BSA. After washing, the cell suspension was aspirated through the tube by a syringe pump (Harvard Apparatus Inc.) at desired shear rates for 1.2 minutes and washed with modified Tyrode's buffer for additional 10 minutes at the same shear rates to remove transiently adherent cells. The experiments were continuously recorded on videotape using a video cassette recorder (model 9500, Sony). The number of stably adherent cell on immobilized vWF was counted on images obtained at 20 randomly selected positions in the vWF-coated tubes.
In FIGS. 2A and B, vWF-coated capillary tubes were perfused with equivalent numbers (5×10^5/ml) of CHO cells expressing recombinant GPLb-JX alone (1b9), integrin αIIbβ3 alone (2b3a), both GPIb-IX and integrin αIIbβ3 (123) or expressing GPJb-JX, integrin α^IIbβ3 and PKG Ia (123PKG) at a shear rates of 800 s^−1 (A) or 1500 s^−1 (B) for 1.2 minutes, and then perfused with the modified Tyrodes buffer for 10 minutes at the same shear rates to wash out transient adherent cells. The expenments were recorded in real time. Cells stably adherent to vWF-coated capillary tubes at 20 randomly selected locations were counted.
In FIG. 2C, vector-transfected 123 cells (123) or 123PKG cells also was perfused into vWF-coated glass capillary tubes as described in FIG. 2A in the absence or presence (+RGDS) of an integrin inhibitor RGDS peptide (4 mM) and in the absence (Control) or presence of cGMP-enhancing drug, sildenafil (5 μM). […] The experiments were repeated at least three times.

[3] = clinical reports, Refs. 39-42; cited from earlier work
platelets [4] = conditions: agonists ADP, collagen, A23 187, U46619, platelet activating factor; Ref. 38; cited from earlier work
platelets [5] = assay: Platelet aggregation/activation in vitro with sildenafil by itself; type: cell-based, human
platelets [6] = assay: Low-dose α-thrombin-induced aggregation of washed platelets; type: cell-based, human; conditions: washed platelets; thrombin 0.02 units/ml; FIGS. 5B, 6B
Protocol: as §1
In FIG. 5A, washed platelets were preincubated with 40 pg/mi anti-GPIba monoclonal antibody SZ2, integrin inhibitor RGDS, or inhibitors of PKG, KT5823 (2 μM) or Rp-8pCPT-cGMP (0.2 mM) (Calbiochem), for 5 min. Platelets also were preincubated with DMSO (vehicle for KT5823), KT5720 or buffer (Control) as controls. α-Thrombin (0.05 units/mi) then was added to induce platelet aggregation. Nonspecific JgG and RGES peptides also were examined as additional controls, but had no effect (not shown). In FIG. 5B, a subthreshold dose of thrombin was added to platelets immediately followed by addition of PKG activator 8-bromo-cGMP or buffer (Control). Shown in the figure are the representative results of at least three experiments.
as §2, §3

[7] = identical flow conditions, not shown

CCCc1nn(C)c2c(=O)[nH]c(-c3cc(S(=O)(=O)N4CCN(C)CC4)ccc3OCC)nc12 [sildenafil]
platelet aggregation together with a subthreshold concentration of ristocetin (platelets [1]): induces platelet aggregation
stable adhesion of vector-transfected 123 cells to vWF under flow [2]: enhancing effects
stable adhesion of PKG-expressing 123 cells (123PKG) to vWF under flow [2]: enhanced
stable adhesion of PKG-expressing 123 cells (123PKG) to vWF under flow ([2]; listed as Sildenafil): significantly increased
stable adhesion of vector-transfected 123 cells to vWF under flow ([2]; listed as Sildenafil): significantly increased
stable adhesion of 1b9 cells (GPIb-IX alone) under flow [2, 7]: no effect
stable adhesion of 2b3a cells (integrin αIIbβ3 alone) under flow [2, 7]: no effect
thrombotic events (myocardial infarction and cerebral thrombosis) in some patients [3]: associated with severe thrombotic events
platelet activation in vitro, sildenafil alone (platelets [4]): did not inhibit; also recorded: does not inhibit
platelet aggregation in vitro (platelets [5]; sildenafil, not shown): did not inhibit
platelet activation by sildenafil by itself (platelets [5]; without platelet agonist): not sufficient to cause platelet activation
platelet aggregation together with a subthreshold concentration of thrombin (platelets [6]): induces platelet aggregation
